The text below walks through data of BindingDB's records for patent US9776990 (Abbvie, 2017).

For the experiment, the target named is Bromodomain-containing protein 4 (Homo sapiens, UniProt O60885).
For `Cc1[nH]c(-c2cccc3ccccc23)c2c1C(=O)CCC2` [US9776990, Example 19], the Ki (in general, the dissociation constant of the complex between target and ligand, obtained from inhibition or displacement) was 19.7 µM.

The molecule `Cc1[nH]c(-c2ccccc2CN2C(=O)c3ccccc3C2=O)c2c1C(=O)CCC2` [US9776990, Example 26] displayed a Ki of 10.4 µM.

As for `Cc1[nH]c(-c2ccccc2Oc2ccccc2)c2c1C(=O)CC(CC(C)C)C2` (stereo not drawn) [US9776990, Example 68], the affinity corresponds to a Ki of 22.2 µM.
